The values that follow come from BindingDB's records for doi:10.1021/jm00038a005 (Bristol-Myers Squibb, 1994).

The test has as its target T1, Dimer of Gag-Pol polyprotein [489-587] (Human immunodeficiency virus 1, UniProt P12497).
T1 construct: 489-587
Kind of test: Protease Inhibition Assay. The settings on record: pH 5.5; 37 °C. The procedure:
Sensitivity of HIV-1 protease activity to protease inhibitors was determined by a peptide substrate cleavage assay. Protease products were analyzed on a reverse-phase high-pressure liquid chromatograph.

Regarding `CC(C)(C)OC(=O)N[C@@H](CC1CCCCC1)[C@H](O)CNC[C@@H](O)[C@H](CC1CCCCC1)NC(=O)OC(C)(C)C` [(R,S)-[Iminobis[1-(cyclohexylmethyl)-2-hydroxy-3,1-propanediyl]]bis[carbamic acid], Bis(1,1-dimethylethylester)], the half-inhibitory concentration (IC50) turned out to be 800 nM.

`CC(C)(C)OC(=O)N[C@@H](Cc1ccccc1)[C@H](O)CNC[C@@H](O)[C@H](Cc1ccc(O)cc1)NC(=O)OC(C)(C)C` [BMS-186318 analog 4] showed an IC50 of 100 nM. The compound `CC(C)(C)OC(=O)N[C@@H](Cc1ccccc1)[C@H](O)CNC[C@@H](O)[C@H](Cc1ccccc1)NC(=O)OC(C)(C)C` [tert-butyl N-[(2S,3R)-4-{[(2R,3S)-3-{[(tert-butoxy)carbonyl]amino}-2-hydroxy-4-phenylbutyl]amino}-3-hydroxy-1-phenylbutan-2-yl]carbamate] displayed a Ki of 100 nM. `CC(C)(C)OC(=O)N[C@@H](CCc1ccccc1)[C@H](O)CNC[C@@H](O)[C@H](Cc1ccccc1)NC(=O)OC(C)(C)C` [tert-butyl N-[(2S,3R)-4-{[(2R,3S)-3-{[(tert-butoxy)carbonyl]amino}-2-hydroxy-5-phenylpentyl]amino}-3-hydroxy-1-phenylbutan-2-yl]carbamate] returned an IC50 of 500 nM.

By IC50 is commonly meant the concentration that gives 50% inhibition. By Ki is commonly meant a dissociation constant, usually derived from enzyme kinetics or from competition with a known ligand. A high value points to a looser hold on the target.
